These results are taken from US12281122B1, “PI3K inhibitors” (Cogent Biosciences, Inc., priority 2023, dated 2025).

Test [1] deals with SKBR3 (PI3Kα-Wild Type) cell line. As to the kind of experiment: HTRF phospho-AKT(S473) cell assay in SKBR3 cells. Type of test: cell-based, human. Here is the method:
(§1) Compounds in the present disclosure were tested in a cell based HTRF phospho-AKT(S473) (CisBio/Revvity) assay in human breast cancer cell lines as a measurement of PIK3CA activity through measuring AKT, a downstream effector. The activity of mutant PI3Kα-H1047R and PI3Kα-Wild Type was measured in the T47D (PI3Kα-H1047R) and SKBR3 (PI3Kα-Wild Type) cell lines, respectively. T47D cells were plated at 20,000 cells per well in 50 μL in RPMI medium supplemented with 10% FBS and 0.2 units/mL insulin, in 384 well plates. SKBR3 cells were plated at 25,000 cells per well in 50 μL in McCoy's 5A medium supplemented with 10% FBS, in 384 well plates. Cells were plated using a Combi Multidrop reagent dispenser (ThermoFisher), and placed in 5% CO2, 37° C. incubator overnight to adhere.
(§2) The next day, cells were treated with either compounds or vehicle (DMSO) in a 12-fold dose response curve of 1:3 dilutions, with 5 μM and 10 μM as the top concentrations for the T47D and SKBR3 cell lines, respectively. Compound treatment was facilitated via the D300e digital dispenser (Tecan), with a maximum DMSO concentration of 0.5%. Following compound addition, cell plates were incubated for 2 hours in 5% CO2, 37° C. incubator. The SKBR3 cells were stimulated and treated with 70 ng/ml PDGF-BB ligand (ThermoFisher) for the remaining 15 minutes of the incubation. Following compound incubation, compound and media was aspirated from the cells and 25 μL of supplemented lysis buffer was added per well, and incubated for 45 minutes at room temperature, shaking at 600 rpm. Next, 16 μL of cell lysate was added to a 384 well low volume ProxyPlate (Perkin Elmer/Revvity) mixed with 4 μL of HTRF antibodies (1:1 Eu Cryptate+d2 Cryptate). HTRF supplemented lysis buffer and antibody reagents were used from the phosphor-AKT(S473) HTRF assay kit (CisBio/Revvity), following manufacturers protocol recommendations. Plates were sealed and incubated at 4° C. overnight.
(§3) The following day, plates were centrifuged for 1 minute at 1000 rpm, and read on a PHERAstar plate reader. IC50 values were calculated using Spotfire software.

Test [2] has as its system T47D (PI3Kα-H1047R) cell line. As to the kind of experiment: HTRF phospho-AKT(S473) cell assay in T47D cells. Format: cell-based, human. Here is the method:
as §1, §2, §3
(In general: TR-FRET usually uses a lanthanide donor and a delayed reading to cut background.)

[3] abbreviates: Homo sapiens, SK-BR-3; SKBR3 (PI3Kα-Wild Type) cells, HTRF phospho-AKT(S473), 2 hours compound incubation, PDGF-BB stimulated.
[4] abbreviates: Homo sapiens; T47D (PI3Kα-H1047R) cells, HTRF phospho-AKT(S473), 2 hours compound incubation.
Where [5] appears, read: Homo sapiens, SK-BR-3; HTRF phospho-AKT(S473), SKBR3 (PI3Kα-Wild Type) cells, 2 hours compound incubation, PDGF-BB stimulated.
The mark [6] stands for this setting: Homo sapiens; HTRF phospho-AKT(S473), T47D (PI3Kα-H1047R) cells, 2 hours compound incubation.

As for `Cc1cc([C@@H](C)Nc2ccc(Cl)nc2C(=O)NS(C)(=O)=O)c2nc(N3[C@@H]4CC[C@H]3C[C@@H](c3cnn(C)c3)C4)n(C)c(=O)c2c1` (racemic) [Compound 381, 6-chloro-3-(((R)-1-(3,6-dimethyl-2-((1RS,3RS,5SR)-3-(1-methyl-1H-pyrazol-4-yl)-8-azabicyclo[3.2.1]octan-8-yl)-4-oxo-3,4-dihydroquinazolin-8-yl)ethyl)amino)-N-(methylsulfonyl) picolinamide], the results for the concentration for half-maximal inhibition (IC50) in test [1] (setting [3]) and in test [2] (setting [4]) were 1 to 5 µM and < 0.25 µM, respectively.

Turning to `Cc1cc([C@@H](C)Nc2ccc(Cl)nc2C(=O)NS(C)(=O)=O)c2nc(N3C[C@H]4C[C@@H](C3)C4c3n[nH]cc3F)n(C)c(=O)c2c1` (mixture of isomers) [Compound 650, 6-chloro-3-(((1R)-1-(2-((1R,5S)-6-(4-fluoro-1H-pyrazol-3-yl)-3-azabicyclo[3.1.1]heptan-3-yl)-3,6-dimethyl-4-oxo-3,4-dihydroquinazolin-8-yl)ethyl)amino)-N-(methylsulfonyl) picolinamide], the figures for the concentration for half-maximal inhibition (IC50) in test [1] (setting [5]) and in test [2] (setting [6]) were ≥ 5 µM and 0.25 to 0.5 µM, respectively.

In the case of `Cc1cc([C@@H](C)Nc2ccc(Cl)nc2C(=O)NS(C)(=O)=O)c2nc(C3CCCN(c4ncc(F)cn4)C3)n(C)c(=O)c2c1` (mixture of isomers) [Compound 748, 6-chloro-3-(((1R)-1-(2-(1-(5-fluoropyrimidin-2-yl)piperidin-3-yl)-3,6-dimethyl-4-oxo-3,4-dihydroquinazolin-8-yl)ethyl)amino)-N-(methylsulfonyl) picolinamide], the IC50 in test [1] (setting [5]) is ≥ 5 µM; in test [2] (setting [6]) it was 0.5 to 1 µM.

On to `Cc1cc([C@@H](C)Nc2ccc(Cl)nc2C(=O)NS(C)(=O)=O)c2nc(N3CCC[C@H](c4cnn(C)c4)C3)n(C)c(=O)c2c1` (relative stereo) [Compound 194, 6-chloro-3-(((R)-1-(3,6-dimethyl-2-((R*)-3-(1-methyl-1H-pyrazol-4-yl)piperidin-1-yl)-4-oxo-3,4-dihydroquinazolin-8-yl)ethyl)amino)-N-(methylsulfonyl) picolinamide], for which the figures for the IC50 in test [1] (setting [3]) and in test [2] (setting [4]) were 1 to 5 µM and < 0.25 µM, respectively.

Regarding `Cc1cc([C@@H](C)Nc2ccc(Cl)nc2C(=O)NS(C)(=O)=O)c2nc(N3CCC[C@@H](c4cnn(C)c4)C3)n(C)c(=O)c2c1` (relative stereo) [Compound 202, 6-chloro-3-(((R)-1-(3,6-dimethyl-2-((R*)-3-(1-methyl-1H-pyrazol-4-yl)piperidin-1-yl)-4-oxo-3,4-dihydroquinazolin-8-yl)ethyl)amino)-N-(methylsulfonyl) picolinamide], the IC50 was 1 to 5 µM in test [1] (setting [3]) and < 0.25 µM in test [2] (setting [4]).

Consider `Cc1cc([C@@H](C)Nc2ccc(Cl)nc2C(=O)NS(C)(=O)=O)c2nc(N3CCC[C@H](c4ccncc4)C3)n(C)c(=O)c2c1` (relative stereo) [Compound 205, 6-chloro-3-(((R)-1-(3,6-dimethyl-4-oxo-2-((R*)-3-(pyridin-4-yl)piperidin-1-yl)-3,4-dihydroquinazolin-8-yl)ethyl)amino)-N-(methylsulfonyl) picolinamide], for which the values for the IC50 in test [1] (setting [3]) and in test [2] (setting [4]) were 1 to 5 µM and < 0.25 µM, respectively.

`Cc1cc([C@@H](C)Nc2ccc(Cl)nc2C(=O)NS(C)(=O)=O)c2nc(N3CCC[C@@H](c4ccncc4)C3)n(C)c(=O)c2c1` (relative stereo) [Compound 207, 6-chloro-3-(((R)-1-(3,6-dimethyl-4-oxo-2-((R*)-3-(pyridin-4-yl)piperidin-1-yl)-3,4-dihydroquinazolin-8-yl)ethyl)amino)-N-(methylsulfonyl) picolinamide]: the IC50 in test [1] (setting [3]) is 1 to 5 µM; in test [2] (setting [4]), < 0.25 µM.

Consider `Cc1cc([C@@H](C)Nc2ccc(Cl)nc2C(=O)NS(C)(=O)=O)c2nc(N3CCC[C@@H](c4ccccn4)C3)n(C)c(=O)c2c1` (relative stereo) [Compound 208, 6-chloro-3-(((R)-1-(3,6-dimethyl-4-oxo-2-((R*)-3-(pyridin-2-yl)piperidin-1-yl)-3,4-dihydroquinazolin-8-yl)ethyl)amino)-N-(methylsulfonyl) picolinamide], for which the IC50 is ≥ 5 µM in test [1] (setting [3]) and 0.25 to 0.5 µM in test [2] (setting [4]).

Turning to `Cc1cc([C@@H](C)Nc2ccc(Cl)nc2C(=O)NS(C)(=O)=O)c2nc([C@@H]3CCCN(c4cccnc4)C3)n(C)c(=O)c2c1` (relative stereo) [Compound 211, 6-chloro-3-(((R)-1-(3,6-dimethyl-4-oxo-2-((R*)-1-(pyridin-3-yl)piperidin-3-yl)-3,4-dihydroquinazolin-8-yl)ethyl)amino)-N-(methylsulfonyl) picolinamide], the IC50 was 1 to 5 µM in test [1] (setting [3]) and < 0.25 µM in test [2] (setting [4]).

As for `Cc1cc([C@@H](C)Nc2ccc(Cl)nc2C(=O)NS(C)(=O)=O)c2nc([C@@H]3CCCN(c4ccccn4)C3)n(C)c(=O)c2c1` (relative stereo) [Compound 212, 6-chloro-3-(((R)-1-(3,6-dimethyl-4-oxo-2-((R*)-1-(pyridin-2-yl)piperidin-3-yl)-3,4-dihydroquinazolin-8-yl)ethyl)amino)-N-(methylsulfonyl) picolinamide], the values for the IC50 in test [1] (setting [3]) and in test [2] (setting [4]) were 1 to 5 µM and < 0.25 µM, respectively.

As to `Cc1cc([C@@H](C)Nc2ccc(Cl)nc2C(=O)NS(C)(=O)=O)c2nc(N3CCC[C@H](c4cc[nH]n4)C3)n(C)c(=O)c2c1` (relative stereo) [Compound 213, 3-(((R)-1-(2-((R*)-3-(1H-pyrazol-3-yl)piperidin-1-yl)-3,6-dimethyl-4-oxo-3,4-dihydroquinazolin-8-yl)ethyl)amino)-6-chloro-N-(methylsulfonyl) picolinamide], the IC50 in test [1] (setting [3]) was 1 to 5 µM; in test [2] (setting [4]), < 0.25 µM.

On to `Cc1cc([C@@H](C)Nc2ccc(Cl)nc2C(=O)NS(C)(=O)=O)c2nc(N3CCC[C@@H](c4cc[nH]n4)C3)n(C)c(=O)c2c1` (relative stereo) [Compound 218, 3-(((R)-1-(2-((R*)-3-(1H-pyrazol-3-yl)piperidin-1-yl)-3,6-dimethyl-4-oxo-3,4-dihydroquinazolin-8-yl)ethyl)amino)-6-chloro-N-(methylsulfonyl) picolinamide], for which the IC50 was 1 to 5 µM in test [1] (setting [3]) and < 0.25 µM in test [2] (setting [4]).

Take `Cc1cc([C@@H](C)Nc2ccc(Cl)nc2C(=O)NS(C)(=O)=O)c2nc(N3Cc4cn([C@@H](C)C(F)(F)F)nc4C3)n(C)c(=O)c2c1` (relative stereo) [Compound 222, 6-chloro-3-(((R)-1-(3,6-dimethyl-4-oxo-2-(2-((R*)-1,1,1-trifluoropropan-2-yl)-2,6-dihydropyrrolo[3,4-c]pyrazol-5(4H)-yl)-3,4-dihydroquinazolin-8-yl)ethyl)amino)-N-(methylsulfonyl) picolinamide]: the values for the concentration for half-maximal inhibition (IC50) in test [1] (setting [3]) and in test [2] (setting [4]) were 1 to 5 µM and < 0.25 µM, respectively.

Consider `Cc1cc([C@@H](C)Nc2ccc(Cl)nc2C(=O)NS(C)(=O)=O)c2nc(N3Cc4cn([C@H](C)C(F)(F)F)nc4C3)n(C)c(=O)c2c1` (relative stereo) [Compound 224, 6-chloro-3-(((R)-1-(3,6-dimethyl-4-oxo-2-(2-((R*)-1,1,1-trifluoropropan-2-yl)-2,6-dihydropyrrolo[3,4-c]pyrazol-5(4H)-yl)-3,4-dihydroquinazolin-8-yl)ethyl)amino)-N-(methylsulfonyl) picolinamide], for which the IC50 in test [1] (setting [3]) was 1 to 5 µM; in test [2] (setting [4]), < 0.25 µM.

For the molecule `Cc1cc([C@@H](C)Nc2ccc(Cl)nc2C(=O)NS(C)(=O)=O)c2nc(N3CCC[C@H](c4cnn(CC(F)(F)F)c4)C3)n(C)c(=O)c2c1` (relative stereo) [Compound 231, 6-chloro-3-(((R)-1-(3,6-dimethyl-4-oxo-2-((R*)-3-(1-(2,2,2-trifluoroethyl)-1H-pyrazol-4-yl)piperidin-1-yl)-3,4-dihydroquinazolin-8-yl)ethyl)amino)-N-(methylsulfonyl) picolinamide], the values for the half-inhibitory concentration (IC50) in test [1] (setting [3]) and in test [2] (setting [4]) were 1 to 5 µM and < 0.25 µM, respectively.

For `Cc1cc([C@@H](C)Nc2ccc(Cl)nc2C(=O)NS(C)(=O)=O)c2nc(N3CC[C@@H](Oc4ccc(F)cc4)C3)n(C)c(=O)c2c1` (relative stereo) [Compound 236, 6-chloro-3-(((R)-1-(2-((R*)-3-(4-fluorophenoxy)pyrrolidin-1-yl)-3,6-dimethyl-4-oxo-3,4-dihydroquinazolin-8-yl)ethyl)amino)-N-(methylsulfonyl) picolinamide], the results for the IC50 in test [1] (setting [3]) and in test [2] (setting [4]) were 1 to 5 µM and 0.25 to 0.5 µM, respectively.

Usually IC50 stands for the concentration at which inhibition is half-maximal.
